# Read-outs that look alike come from different tables or passages of the source.
# Key:
# [1] = molecular target: Klenow (3′→5′ exo(−)) fragment of E. coli DNA polymerase (Escherichia coli, UniProt P00582, D355A/E357A)
# [2] = molecular target: T1, HIV reverse transcriptase (Human immunodeficiency virus type 1 group M subtype B, UniProt P03366); assay: Biolayer interferometry binding of HIV RT, dNTP and NNRTI to primer-template biosensor (Example 8); design: species or system HIV-1; details: 100 μM dNTP, 100 nM HIV RT, association phase
# T1 construct: Recombinant purified HIV reverse transcriptase (HIV RT) was from Worthington Biochemical Corp; purchased Worthington Biochemical Corp (Lakewood, N.J.)
# Protocol: Uncompetitive NNRTI compounds (Pitta et al., J. Enzyme Inhib. Med. Chem. 28(10): 113-22 (2013)), which is incorporated by reference herein in its entirety), were from Epigen Biosciences, Inc. (San Diego, Calif.). NNRTI compounds 7 (3-4-chloro-benzo[d]thiazol-2-yl)-2-(2-chloro-6-fluorophenyl)thiazolidin-4-one) and 18 (3-(6-ethoxy-benzo[d]thiazol-2-yl)-2-(2-chloro-6-fluorophenyl)thiazolidin-4-one) were dissolved in dimethylsulfoxide (DMSO) to concentrations of 25.0 mM and 15.0 mM, respectively. Recombinant purified HIV reverse transcriptase (HIV RT) was from Worthington Biochemical Corp (Lakewood, N.J.). Ultra-pure bovine serum albumin (BSA) was from Ambion (Foster City, Calif.). […] Primer-template duplex was diluted (100 μM) into Annealing Buffer. Immediately before use, HIV Reverse Transcriptase was pre-diluted into Enzyme Diluent (50 mM Tris buffer (pH 8.0), 8 mM MgCl2). […] NNRTI compounds were pre-diluted with DMSO immediately before being spiked into Binding Buffer. Reaction Buffer was Binding Buffer without NNRTI, dNTP or HIV RT enzyme. […] Biosensors were transferred to Binding Buffer containing HIV RT and dCTP+NNRTI (association phase) followed by Reaction Buffer (dCTP incorporation and dissociation phase). […] Cycles of binding and incorporation were repeated multiple times. […]
# [3] = molecular target: Klenow (Escherichia coli, UniProt P00582); assay: Label-free optical detection of Klenow binding with magnesium in the examination step (Example 1); details: Polymerase Buffer with 10 mM MgCl2; 150 nM Klenow; 100 μM dNTP; template base T
# [4] = tested on: Nucleic Acid:Polymerase Complex; assay: Stabilization of nucleic acid:polymerase complex in wash buffer (Example 6); type: binding; details: 3.5 mM Sr2+ in wash buffer (LS buffer)
# Protocol: To minimize the possibility of multiple incorporations in a homopolymer region, a wash step can be performed before incorporation. Metal cations such as calcium and strontium can stabilize the polymerase complex (like magnesium), but cannot support catalysis of the phosphodiester bond which results in incorporation of the nucleotide. In this experiment, varying concentrations of SrCl2 (0 mM-14 mM) were added to the wash buffer (LS buffer).
# [5] = divalent cation 2.0 mM (CoCl2 1.0 mM) in Binding Buffer, 100 μM dCTP
# [6] = divalent cation 2.0 mM (CoCl2 1.0 mM), 100 μM dCTP
# Sequence of Klenow (3′→5′ exo(−)) fragment of E. coli DNA polymerase (P00582 324-928 D355A/E357A limits assumed): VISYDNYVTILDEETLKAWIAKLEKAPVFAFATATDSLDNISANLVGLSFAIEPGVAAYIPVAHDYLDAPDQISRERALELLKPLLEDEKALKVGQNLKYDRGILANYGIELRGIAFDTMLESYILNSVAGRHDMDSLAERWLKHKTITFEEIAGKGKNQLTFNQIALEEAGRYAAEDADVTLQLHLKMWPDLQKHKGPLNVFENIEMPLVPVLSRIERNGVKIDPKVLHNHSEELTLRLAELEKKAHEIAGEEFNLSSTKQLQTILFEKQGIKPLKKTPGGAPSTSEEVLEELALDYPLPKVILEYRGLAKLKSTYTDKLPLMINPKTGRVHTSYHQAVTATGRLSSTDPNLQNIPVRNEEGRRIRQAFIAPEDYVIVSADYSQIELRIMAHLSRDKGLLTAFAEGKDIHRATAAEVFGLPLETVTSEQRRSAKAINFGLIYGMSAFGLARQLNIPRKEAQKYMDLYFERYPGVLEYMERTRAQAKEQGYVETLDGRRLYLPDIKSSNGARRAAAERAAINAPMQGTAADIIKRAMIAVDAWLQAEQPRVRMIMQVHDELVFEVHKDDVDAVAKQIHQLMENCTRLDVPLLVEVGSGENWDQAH
# Sequence of Klenow (P00582 324-928): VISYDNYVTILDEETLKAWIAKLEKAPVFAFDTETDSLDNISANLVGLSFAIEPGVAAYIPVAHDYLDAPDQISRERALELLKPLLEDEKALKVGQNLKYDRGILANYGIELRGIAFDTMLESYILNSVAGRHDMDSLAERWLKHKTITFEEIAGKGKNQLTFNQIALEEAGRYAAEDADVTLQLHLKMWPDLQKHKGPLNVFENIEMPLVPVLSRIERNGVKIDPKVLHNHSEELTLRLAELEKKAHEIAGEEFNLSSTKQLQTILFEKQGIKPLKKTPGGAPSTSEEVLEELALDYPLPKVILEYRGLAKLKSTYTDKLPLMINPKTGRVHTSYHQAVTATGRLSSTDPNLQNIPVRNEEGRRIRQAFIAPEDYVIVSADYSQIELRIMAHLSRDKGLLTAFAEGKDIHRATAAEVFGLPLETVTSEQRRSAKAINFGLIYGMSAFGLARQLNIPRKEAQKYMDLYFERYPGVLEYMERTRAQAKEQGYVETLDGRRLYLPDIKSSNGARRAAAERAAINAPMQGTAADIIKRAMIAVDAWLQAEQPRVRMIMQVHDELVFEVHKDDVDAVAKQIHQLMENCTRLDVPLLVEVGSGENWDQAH
compound,measurement,setting,value
"[Ca+2].[Cl-].[Cl-] [Ca2+, calcium chloride]",binding of Klenow exo(−) and dCTP to biosensor coated with ssDNA primer-template,[1],transient peak
same,nucleotide incorporation by Klenow exo(−) in the absence of Mg2+,[1],complete nucleotide incorporation
O=C1CSC(c2c(F)cccc2Cl)N1c1nc2c(Cl)cccc2s1 (centres unmarked) [NNRTI compound 7],binding of HIV reverse transcriptase and correct dNTP to biosensor coated with primer-template,[2]; NNRTI 40 μM,distinct peaks for binding
"[Ba+2].[Cl-].[Cl-] [BaCl2, barium chloride]",binding of Klenow exo(−) and dCTP to biosensor coated with ssDNA primer-template,[1]; [5],bound strongly
N.N.O=S(=O)(O)O [ammonium sulfate],binding of Klenow exo(−) and dCTP to biosensor coated with ssDNA primer-template,[1]; [5],bound strongly
"Nc1ncnc2c1ncn2[C@H]1C[C@H](O)[C@@H](COP(=O)(O)OP(=O)(O)OP(=O)(O)O)O1 [dATP, 2′-deoxyadenosine-5′-triphosphate]",pre-steady state rate constant,[3],0.0106
"[Cl-].[Cl-].[Sr+2] [SrCl2, Strontium chloride]",binding of Klenow exo(−) and dCTP to biosensor coated with ssDNA primer-template,[1]; [5],bound strongly
same,stability of polymerase complex in wash buffer,[4],much more stable
manganese chloride [Mn2+],binding of Klenow exo(−) and dCTP to biosensor coated with ssDNA primer-template,[1]; [5],flat peak
same,nucleotide incorporation by Klenow exo(−) in the absence of Mg2+,[1]; [6],complete nucleotide incorporation
"[Cl][Co][Cl] [Co2+, cobalt chloride]",binding of Klenow exo(−) and dCTP to biosensor coated with ssDNA primer-template,[1]; [5],transient peak
same,nucleotide incorporation by Klenow exo(−) in the absence of Mg2+,[1]; [6],complete nucleotide incorporation
"[Cl-].[Cl-].[Zn+2] [Zn2+, zinc chloride]",binding of Klenow exo(−) and dCTP to biosensor coated with ssDNA primer-template,[1]; [5],transient peak
same,nucleotide incorporation by Klenow exo(−) in the absence of Mg2+,[1]; [6],complete nucleotide incorporation
"[Cl][Cu][Cl] [Cu2+, copper(II) chloride]",binding of Klenow exo(−) and dCTP to biosensor coated with ssDNA primer-template,[1],transient peak
"CCOc1ccc2nc(N3C(=O)CSC3c3c(F)cccc3Cl)sc2c1 (centres unmarked) [NNRTI compound 18, 3-(6-ethoxy-benzo[d]thiazol-2-yl)-2-(2-chloro-6-fluorophenyl)thiazolidin-4-one]",binding of HIV reverse transcriptase and correct dNTP to biosensor coated with primer-template,[2]; NNRTI 80 μM,distinct peaks for binding
"Nc1ccn([C@H]2C[C@H](O)[C@@H](COP(=O)(O)OP(=O)(O)OP(=O)(O)O)O2)c(=O)n1 [dCTP, 2′-deoxycytidine-5′-triphosphate]",pre-steady state rate constant,[3],0.0084
